Measured values as given in paper PMC9068900, “Pharmacology of Kappa Opioid Receptors: Novel Assays and Ligands” (Frontiers in Pharmacology, 2022).
Marks after values point to notes of the source that are not given here.

Columns and labels:
human mu opioid receptor = target: T1, human mu opioid receptor (Homo sapiens, UniProt P35372); assay: Calcium mobilization in CHO cells co-expressing the mu receptor and Gαqi5; type: cell-based
T1 construct: expressed in transfected cells

[1] = target: T2, human delta opioid receptor (Homo sapiens, UniProt P41143); assay: Calcium mobilization in CHO cells co-expressing the delta receptor and GαqG66Di5; type: cell-based
T2 construct: expressed in transfected cells

[2] = test system: human kappa opioid receptor; assay: Bias factor, G protein vs β-arrestin 2, from BRET data
Experimental: To quantify the differences in agonist efficacies for G protein and arrestin interactions, bias factors were calculated by choosing the endogenous kappa opioid ligand Dyn A as standard unbiased ligand. For this analysis, the Emax and EC50 of the agonist were derived using a 3-parameter logistic model with slope values equal to unity. […] Under such conditions, the relative ratio (Emax/EC50)lig/(Emax/EC50)Dyn A is equivalent to the relative (τ/K)lig/(τ/K)Dyn A ratio as defined by the operational model ([Black and Leff, 1983]; [Griffin et al., 2007]). Taking ratios of these values between G protein and arrestin can cancel the common K and yield the ratio of ligand intrinsic efficacy across the two transduction proteins. Thus, the following formula was used for calculating agonist bias factors in log10 units: bias factor= log[(Emax/EC50)lig/(Emax/EC50)Dyn A]G prot.−log[(Emax/EC50)lig/(Emax/EC50)Dyn A]β−arr.
The pharmacological terminology and computations related to biased agonism were consistent with IUPHAR recommendations ([Kolb et al., 2022]).

[3] = target: T3, human kappa opioid receptor (Homo sapiens, UniProt P41145); assay: biochemical; type: biochemical; design: 13-mer linker peptide […]; expressed in transfected cells; enriched plasma membranes used
[4] = target: T3, human kappa opioid receptor; assay: Dynamic mass redistribution (DMR) label-free assay in CHO cells; type: cell-based; design: expressed in transfected cells
Experimental: DMR experiments were conducted as previously described ([Malfacini et al., 2018]). Chinese Hamster Ovary (CHO) cells stably expressing the human kappa receptor were kindly provided by L Toll (Torrey Pines Institute for Molecular Studies, Port St. Lucie, United States). Cells were cultured in Dulbecco’s Modified Eagle Medium: Nutrient Mixture F-12 (DMEM/F12) supplemented with 10% (v/v) Fetal Calf Serum (FCS), 100 U/ml penicillin, 100 μg/ml streptomycin, 2 mM L-glutamine, 15 mM HEPES. The medium was supplemented with 400 μg/ml G418 to maintain expression. Cells were seeded at a density of 45,000 cells/well in 120 μL into fibronectin-coated EnspireTM-LC 96-wells plates and cultured for 20 h to form a confluent monolayer. On the day of the experiment, cells were washed twice and maintained with assay buffer: HBSS with 20 mM HEPES, 0.01% BSA fraction V; for 90 min before the experiment. DMR was monitored in real-time with a temporal resolution of 44 s throughout the assay. Experiments were performed at 37°C, using an EnSight Multimode Plate Reader (PerkinElmer). A 5 min baseline was first established, followed by adding compounds manually in a volume of 40 μL and recording compound-triggered DMR signal for 60 min. In antagonism experiments, ligands tested as antagonists were added 30 min before agonist administration. Maximum picometers (pm) modification (peak) were used to determine agonist response after baseline normalization.
The pharmacological terminology is consistent with the International Union of Basic and Clinical Pharmacology (IUPHAR) recommendations ([Neubig et al., 2003]). Concentration-response curves to agonists were fitted to the four-parameter logistic nonlinear regression model as follows: Effect=Basal+ Emax−Basal/1+10^ (LogEC50−Log[ligand]) × HillSlope
If unsurmountable antagonist behavior was detected, the pKB value was derived as follows: a double-reciprocal plot of equi-effective concentrations of agonist (A) in the absence (1/A) and presence (1/A’) of the antagonist (B) was constructed and pKB was derived from the equation pKB = log {(slope-1)/[B]} ([Kenakin, 2009]).

[5] = target: T3, human kappa opioid receptor; assay: Summary over the assays used (calcium mobilization, DMR, BRET); type: cell-based; design: expressed in transfected cells
[6] = target: T3, human kappa opioid receptor; assay: Calcium mobilization in CHO cells co-expressing the kappa receptor and Gαqi5; type: cell-based; design: expressed in transfected cells
[7] = target: T3, human kappa opioid receptor; assay: BRET kappa-β-arrestin 2 interaction, SH-SY5Y whole cells; type: cell-based; design: 13-mer linker peptide […]; expressed in transfected cells; enriched plasma membranes used
kappa opioid receptor = test system: kappa opioid receptor; design: method as in Arimitsu et al., 1977; settings: ref Arimitsu et al., 1977, cited from earlier work
mice [8] = test system: mice; design: method as in Gairin et al., 1988a; settings: intracerebroventricular, ref Gairin et al., 1988a; cited from earlier work
mice [9] = test system: mice; design: method as in Gairin et al., 1988a; settings: intracerebroventricular, ref Gairin et al., 1988a; cited from earlier work; remark: listed apart in the source

T1 sequence (P35372 whole entry): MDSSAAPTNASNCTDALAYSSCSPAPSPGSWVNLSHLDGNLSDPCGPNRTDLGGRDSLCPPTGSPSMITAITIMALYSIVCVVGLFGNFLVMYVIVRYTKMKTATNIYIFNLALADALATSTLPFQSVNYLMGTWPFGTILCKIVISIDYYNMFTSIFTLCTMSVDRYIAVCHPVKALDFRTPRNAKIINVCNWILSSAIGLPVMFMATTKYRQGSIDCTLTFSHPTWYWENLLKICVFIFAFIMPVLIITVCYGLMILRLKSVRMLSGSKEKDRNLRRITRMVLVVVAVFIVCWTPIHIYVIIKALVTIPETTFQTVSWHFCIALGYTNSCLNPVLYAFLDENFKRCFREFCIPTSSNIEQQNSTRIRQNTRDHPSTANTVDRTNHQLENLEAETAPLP
T3 sequence (P41145 whole entry): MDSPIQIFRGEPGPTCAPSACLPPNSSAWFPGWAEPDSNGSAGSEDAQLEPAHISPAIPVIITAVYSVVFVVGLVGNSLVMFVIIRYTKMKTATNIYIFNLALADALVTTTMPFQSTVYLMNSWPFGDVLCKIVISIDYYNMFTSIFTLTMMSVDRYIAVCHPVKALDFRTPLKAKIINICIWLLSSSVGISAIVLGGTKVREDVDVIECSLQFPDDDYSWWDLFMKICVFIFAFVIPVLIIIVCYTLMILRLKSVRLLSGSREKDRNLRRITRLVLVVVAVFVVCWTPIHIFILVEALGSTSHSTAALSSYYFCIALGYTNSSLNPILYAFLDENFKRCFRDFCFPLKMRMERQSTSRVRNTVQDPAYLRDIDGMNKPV
T2 sequence (P41143 whole entry): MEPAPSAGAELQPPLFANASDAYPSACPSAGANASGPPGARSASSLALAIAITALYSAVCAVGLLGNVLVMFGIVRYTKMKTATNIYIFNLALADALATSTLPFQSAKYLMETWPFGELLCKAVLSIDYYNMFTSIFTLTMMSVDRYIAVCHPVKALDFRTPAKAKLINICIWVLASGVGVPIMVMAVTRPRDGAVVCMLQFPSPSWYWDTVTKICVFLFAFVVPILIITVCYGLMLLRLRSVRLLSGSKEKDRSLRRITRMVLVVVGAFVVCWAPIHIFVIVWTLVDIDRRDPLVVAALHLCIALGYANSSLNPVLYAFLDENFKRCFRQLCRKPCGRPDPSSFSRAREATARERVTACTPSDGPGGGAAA

C[C@@H](NC(=O)[C@@H](N)Cc1ccc(O)cc1)C(=O)N[C@@H](Cc1ccccc1)C(=O)NCC(=O)N[C@@H](Cc1ccc(O)cc1)C(=O)N1CCC[C@H]1C(=O)N[C@@H](CO)C(N)=O [Dermorphin]
Maximal effects (human mu opioid receptor; CHO cells, mu + Gαqi5): 294 % over the baseline

CC[C@H](C)[C@H](NC(=O)[C@H](CCCNC(=N)N)NC(=O)[C@H](CCCNC(=N)N)NC(=O)[C@H](CC(C)C)NC(=O)[C@H](Cc1ccccc1)NC(=O)CNC(=O)CNC(=O)[C@@H](N)Cc1ccc(O)cc1)C(=O)N[C@@H](CCCNC(=N)N)C(=O)N1CCC[C@H]1C(=O)N[C@@H](CCCCN)C(=O)N[C@@H](CC(C)C)C(=O)N[C@@H](CCCCN)C(=O)N[C@@H](Cc1c[nH]c2ccccc12)C(=O)N[C@@H](CC(=O)O)C(=O)N[C@@H](CC(N)=O)C(=O)N[C@@H](CCC(N)=O)C(=O)O [Dyn A, dynorphin A]
Maximal effects ([1]; CHO cells, delta + GαqG66Di5): 171 % over the baseline | Bias factor (CL95%) [2]: 0.00

CCCCCCCCCCCCCCCC(=O)NCCCN1C(=O)CC(SC[C@H](NC(=O)[C@H](CCC(N)=O)NC(=O)[C@H](CC(N)=O)NC(=O)[C@H](CC(=O)O)NC(=O)[C@H](Cc2c[nH]c3ccccc23)NC(=O)[C@H](CCCCN)NC(=O)[C@H](CC(C)C)NC(=O)[C@H](CCCCN)NC(=O)[C@@H]2CCCN2C(=O)[C@H](CCCNC(=N)N)NC(=O)[C@@H](NC(=O)[C@H](CCCNC(=N)N)NC(=O)[C@H](CCCNC(=N)N)NC(=O)[C@H](CC(C)C)NC(=O)[C@H](Cc2ccccc2)NC(=O)CNC(=O)CNC(=O)[C@@H](N)Cc2ccc(O)cc2)[C@@H](C)CC)C(N)=O)C1=O (some centres unmarked) [Dyn A-palmitic]
Less potent than DPDPE ([1]; calcium mobilization, delta): 10 fold | Lower potency than dermorphin (human mu opioid receptor; calcium mobilization, mu): approximately 6 fold

Nc1nc2c(ncn2[C@@H]2O[C@H](COP(=O)(O)OP(=O)(O)O)[C@@H](O)[C@H]2O)c(=O)[nH]1 [GDP, guanosine diphosphate]
pEC50 (CL95%) ([3]; 5 min after compound addition): 8.20 | pEC50 (CL95%) ([3]; 30 min after compound addition): 8.21

CC[C@H](C)[C@H](NC(=O)[C@H](CCCNC(=N)N)NC(=O)[C@H](CCCNC(=N)N)NC(=O)[C@H](CC(C)C)NC(=O)[C@H](Cc1ccccc1)NC(=O)CNC(=O)CNC(=O)[C@@H](N)Cc1ccc(O)cc1)C(=O)N[C@@H](CCCNC(=N)N)C(=O)N1CCC[C@H]1C(=O)N[C@@H](CCCCN)C(=O)N[C@@H](CC(C)C)C(=O)N[C@@H](CCCCN)C(=O)N[C@@H](Cc1c[nH]c2ccccc12)C(=O)N[C@@H](CC(=O)O)C(=O)N[C@@H](CC(N)=O)C(=O)N[C@@H](CCC(N)=O)C(=O)N[C@@H](CSC1CC(=O)N(CCCC(=O)N2CCCN(C(=O)CCCN3C(=O)CC(SC[C@H](NC(=O)[C@H](CCC(N)=O)NC(=O)[C@H](CC(N)=O)NC(=O)[C@H](CC(=O)O)NC(=O)[C@H](Cc4c[nH]c5ccccc45)NC(=O)[C@H](CCCCN)NC(=O)[C@H](CC(C)C)NC(=O)[C@H](CCCCN)NC(=O)[C@@H]4CCCN4C(=O)[C@H](CCCNC(=N)N)NC(=O)[C@@H](NC(=O)[C@H](CCCNC(=N)N)NC(=O)[C@H](CCCNC(=N)N)NC(=O)[C@H](CC(C)C)NC(=O)[C@H](Cc4ccccc4)NC(=O)CNC(=O)CNC(=O)[C@@H](N)Cc4ccc(O)cc4)[C@@H](C)CC)C(N)=O)C3=O)CCN(C(=O)CCCN3C(=O)CC(SC[C@H](NC(=O)[C@H](CCC(N)=O)NC(=O)[C@H](CC(N)=O)NC(=O)[C@H](CC(=O)O)NC(=O)[C@H](Cc4c[nH]c5ccccc45)NC(=O)[C@H](CCCCN)NC(=O)[C@H](CC(C)C)NC(=O)[C@H](CCCCN)NC(=O)[C@@H]4CCCN4C(=O)[C@H](CCCNC(=N)N)NC(=O)[C@@H](NC(=O)[C@H](CCCNC(=N)N)NC(=O)[C@H](CCCNC(=N)N)NC(=O)[C@H](CC(C)C)NC(=O)[C@H](Cc4ccccc4)NC(=O)CNC(=O)CNC(=O)[C@@H](N)Cc4ccc(O)cc4)[C@@H](C)CC)C(N)=O)C3=O)CCCN(C(=O)CCCN3C(=O)CC(SC[C@H](NC(=O)[C@H](CCC(N)=O)NC(=O)[C@H](CC(N)=O)NC(=O)[C@H](CC(=O)O)NC(=O)[C@H](Cc4c[nH]c5ccccc45)NC(=O)[C@H](CCCCN)NC(=O)[C@H](CC(C)C)NC(=O)[C@H](CCCCN)NC(=O)[C@@H]4CCCN4C(=O)[C@H](CCCNC(=N)N)NC(=O)[C@@H](NC(=O)[C@H](CCCNC(=N)N)NC(=O)[C@H](CCCNC(=N)N)NC(=O)[C@H](CC(C)C)NC(=O)[C@H](Cc4ccccc4)NC(=O)CNC(=O)CNC(=O)[C@@H](N)Cc4ccc(O)cc4)[C@@H](C)CC)C(N)=O)C3=O)CC2)C1=O)C(N)=O (some centres unmarked) [PWT2-Dyn A]
DMR α [4]: 0.84 | Lower potency than Dyn A [4]: 4 fold | Stimulatory effect ([1]; only at the highest concentration tested): 77 % over the baseline | Agonist activity (in words) (human mu opioid receptor; CHO cells, mu + Gαqi5): inactive | Bias factor (CL95%) [2]: ∼0.18 ^c | Lower potency than dynorphin A [5]: 3–10 fold | Calcium Mobilization α (intrinsic activity: maximal effect divided by that of Dyn A) [6]: ∼1.00 | EC50 [6]: 30.9 nM | BRET G Protein α [3]: ∼1.00 | Lower potency than Dyn A [3]: 3 fold | EC50 ([3]; BRET G Protein pEC50 (CL95%)): 18.6 nM | BRET β-Arrestin 2 α [7]: ∼1.00 | EC50 [7]: 219 nM | Lower potency than Dyn A [7]: 3 fold

CC[C@H](C)[C@H](NC(=O)[C@H](CCCNC(=N)N)NC(=O)[C@H](CCCNC(=N)N)NC(=O)[C@H](CC(C)C)NC(=O)[C@H](Cc1ccccc1)NC(=O)CNC(=O)CNC(=O)[C@@H](N)Cc1ccc(O)cc1)C(=O)N[C@@H](CCCNC(=N)N)C(=O)N1CCC[C@@H]1C(=O)N[C@@H](CCCCN)C(N)=O [[D-Pro^10], [D-Pro^10]Dyn(1-11)-NH2]
DMR Emax [4]: 251 pm | DMR pEC50 (CL95%) [4]: 9.84 (9.31–10.37) | DMR α [4]: 1.07 | Calcium Mobilization pEC50 (CL95%) [6]: 9.08 (8.93–9.23) | Calcium Mobilization α (intrinsic activity: maximal effect divided by that of Dyn A) [6]: 1.00 | BRET G Protein pEC50 (CL95%) [3]: 8.36 (6.54–10.19) | BRET G Protein α [3]: 1.00 | BRET β-Arrestin 2 pEC50 (CL95%) [7]: 8.07 (7.66–8.47) | BRET β-Arrestin 2 α [7]: 0.95

[D-Pro^10]Dyn(1-11)
Higher affinity to the kappa opioid receptor than Dyn A (kappa opioid receptor; [^3H]Bremazocine binding): 7 fold | Selectivity over the delta opioid receptor (kappa opioid receptor): 233 fold | Selectivity over the mu opioid receptor (kappa opioid receptor): 62 fold | Effect in acetic acid-induced writhing (mice [8]): dose-dependent antinociceptive effect | Activity against thermal stimulus (tail-flick) (mice [9]): did not show any activity
